{"source": "ChEMBL document CHEMBL3351883", "about": "“β-Agarofurans and Sesquiterpene Pyridine Alkaloids from Maytenus spinosa” (J Nat Prod, 2014)", "note": "Calls of active or inactive are those of the source. No cut-off for these calls is given here.", "data": [{"system": "Human immunodeficiency virus 1", "test": "Antiviral activity against HIV1 infected in human C8166 cells after 72 hrs by p24 antigen based ELISA", "type": "functional", "conditions": "not given", "units": {"inhibition (INH)": "%"}, "values": [{"smiles": "CCC(C)C(=O)O[C@@H]1[C@H](OC(C)=O)[C@@H]2[C@@H](OC(C)=O)[C@]3(OC2(C)C)[C@H](C)C[C@H](OC(C)=O)[C@H](OC(=O)c2ccccc2)[C@@]13C", "note": "(stereo partly specified)", "inhibition": "inactive"}, {"smiles": "CC(=O)OC[C@]12[C@H](OC(C)=O)[C@H](OC(=O)c3ccccc3)[C@@H]3[C@@H](OC(C)=O)[C@]1(OC3(C)C)[C@H](C)C[C@H](OC(C)=O)[C@@H]2OC(C)=O", "inhibition": "inactive"}, {"smiles": "CC(=O)OC[C@]12[C@H](OC(=O)c3ccccc3)[C@H](OC(=O)c3ccccc3)[C@@H]3[C@@H](OC(C)=O)[C@]1(OC3(C)C)[C@H](C)C[C@H](O)[C@@H]2OC(C)=O", "inhibition": "inactive"}, {"smiles": "CC(=O)OC[C@]12[C@H](OC(C)=O)[C@@H](OC(C)=O)[C@@H]3[C@@H](OC(=O)c4ccco4)[C@@]14O[C@@]3(C)COC(=O)c1cnccc1CCC(C)C(=O)O[C@@H]([C@H](OC(C)=O)[C@@H]2OC(C)=O)[C@]4(C)O", "note": "(stereo partly specified)", "inhibition": "inactive"}, {"smiles": "CC(=O)OC[C@]12[C@H](OC(C)=O)[C@@H](OC(C)=O)[C@@H]3[C@@H](OC(=O)N(C)C)[C@@]14O[C@@]3(C)COC(=O)c1cnccc1CCC(C)C(=O)O[C@@H]([C@H](OC(C)=O)[C@@H]2OC(C)=O)[C@]4(C)O", "note": "(stereo partly specified)", "inhibition": "inactive"}, {"smiles": "CC(=O)O[C@@H]1[C@@H]2[C@@H](OC(C)=O)[C@]3(OC2(C)C)[C@H](C)C[C@H](OC(C)=O)[C@H](OC(=O)c2ccccc2)[C@@]3(C)[C@@H]1OC(C)=O", "inhibition": "inactive"}, {"smiles": "CC(=O)OC[C@@]12[C@H](OC(C)=O)[C@H](OC(C)=O)[C@@H]3[C@@H](OC(=O)c4ccccc4)[C@@]14O[C@@]3(C)COC(=O)c1cccnc1CC[C@H](C)C(=O)O[C@@H]([C@H](OC(C)=O)[C@@H]2OC(C)=O)[C@]4(C)O", "inhibition": "inactive"}, {"smiles": "CC(=O)OC[C@]12[C@H](OC(C)=O)[C@@H](OC(C)=O)[C@@H]3[C@@H](O)[C@@]14O[C@@]3(C)COC(=O)c1cnccc1CCC(C)C(=O)O[C@@H]([C@H](OC(C)=O)[C@@H]2OC(C)=O)[C@]4(C)O", "note": "(stereo partly specified)", "inhibition": "inactive"}, {"smiles": "CCCCCCCCCCCC(=O)O[C@@H]1[C@H]2[C@H](OC(C)=O)[C@@H](OC(C)=O)[C@]3(COC(C)=O)[C@@H](OC(C)=O)[C@@H](OC(C)=O)[C@@H]4OC(=O)C(C)CCc5ccncc5C(=O)OC[C@]2(C)O[C@]13[C@@]4(C)O", "note": "(stereo partly specified)", "inhibition": "inactive"}, {"smiles": "CC(=O)OC[C@]12[C@H](OC(C)=O)[C@H](OC(C)=O)[C@@H]3[C@@H](OC(C)=O)[C@@]14O[C@@]3(C)COC(=O)c1cccnc1CCC(C)C(=O)O[C@@H]([C@H](OC(C)=O)[C@@H]2OC(C)=O)[C@]4(C)O", "note": "(stereo partly specified)", "inhibition": "inactive"}, {"smiles": "CC(=O)OC[C@]12[C@H](OC(C)=O)[C@@H](O)[C@@H]3[C@@H](O)[C@@]14O[C@@]3(C)COC(=O)c1cnccc1CCC(C)C(=O)O[C@@H]([C@H](OC(C)=O)[C@@H]2OC(C)=O)[C@]4(C)O", "note": "(stereo partly specified)", "inhibition": "inactive"}, {"smiles": "CCC(C)C(=O)O[C@@H]1[C@@H]2[C@@H](OC(C)=O)[C@]3(OC2(C)C)[C@H](C)C[C@H](O)[C@H](OC(C)=O)[C@@]3(COC(C)=O)[C@@H]1OC(=O)c1ccccc1", "note": "(stereo partly specified)", "inhibition": "inactive"}, {"smiles": "CC(=O)OC[C@]12[C@H](OC(C)=O)[C@@H](OC(C)=O)[C@@H]3[C@@H](OC(=O)c4cccnc4)[C@@]14O[C@@]3(C)COC(=O)c1cnccc1CCC(C)C(=O)O[C@@H]([C@H](OC(C)=O)[C@@H]2OC(C)=O)[C@]4(C)O", "note": "(stereo partly specified)", "inhibition": "inactive"}, {"smiles": "CC(=O)OC[C@]12[C@H](OC(C)=O)[C@@H](OC(C)=O)[C@@H]3C(=O)[C@@]14O[C@@]3(C)COC(=O)c1cnccc1CCC(C)C(=O)O[C@@H]([C@H](OC(C)=O)[C@@H]2OC(C)=O)[C@]4(C)O", "note": "(stereo partly specified)", "inhibition": "inactive"}, {"smiles": "CC(=O)O[C@@H]1[C@H]2[C@@H](OC(=O)c3ccccc3)[C@@H](OC(=O)c3ccccc3)[C@]3(C)[C@@H](OC(C)=O)[C@@H](O)C[C@@H](C)[C@@]13OC2(C)C", "inhibition": "inactive"}, {"smiles": "CC(=O)OC[C@]12[C@H](OC(C)=O)[C@@H](OC(C)=O)[C@@H]3[C@@H](OC(C)=O)[C@@]14O[C@@]3(C)COC(=O)c1cccnc1CCC(C)C(=O)O[C@@H]([C@H](OC(C)=O)[C@@H]2OC(C)=O)[C@]4(C)O", "note": "(stereo partly specified)", "inhibition": "inactive"}, {"smiles": "CC(=O)OC[C@]12[C@@H](OC(C)=O)[C@@H](OC(=O)c3ccccc3)[C@@H]3C[C@]1(OC3(C)C)[C@H](C)C[C@H](OC(C)=O)[C@@H]2OC(C)=O", "inhibition (INH)": 64.4}, {"smiles": "CC(=O)OC[C@]12[C@H](OC(C)=O)[C@@H](OC(C)=O)[C@@H]3[C@@H](OC(=O)c4ccc(Br)cc4)[C@@]14O[C@@]3(C)COC(=O)c1cnccc1CCC(C)C(=O)O[C@@H]([C@H](OC(C)=O)[C@@H]2OC(C)=O)[C@]4(C)O", "note": "(stereo partly specified)", "inhibition": "inactive"}, {"smiles": "CC(=O)OC[C@]12[C@H](OC(C)=O)[C@@H](OC(C)=O)[C@@H]3[C@@H](OC(C)=O)[C@@]14O[C@@]3(C)COC(=O)c1cnccc1CCC(C)C(=O)O[C@@H]([C@H](OC(C)=O)[C@@H]2OC(C)=O)[C@]4(C)O", "note": "(stereo partly specified)", "inhibition": "inactive"}, {"smiles": "CC(=O)OC[C@]12[C@H](OC(C)=O)C(=O)[C@@H]3[C@@H](O)[C@@]14O[C@@]3(C)COC(=O)c1cnccc1CCC(C)C(=O)O[C@@H]([C@H](OC(C)=O)[C@@H]2OC(C)=O)[C@]4(C)O", "note": "(stereo partly specified)", "inhibition": "inactive"}, {"smiles": "CC(=O)O[C@@H]1[C@H]2[C@@H](OC(=O)c3ccccc3)[C@@H](OC(=O)c3ccccc3)[C@]3(C)[C@@H](OC(C)=O)[C@@H](OC(=O)c4ccccc4)C[C@@H](C)[C@@]13OC2(C)C", "inhibition": "inactive"}, {"smiles": "CC(=O)OC[C@]12[C@H](OC(=O)c3ccccc3)[C@@H](OC(C)=O)[C@@H]3[C@@H](OC(C)=O)[C@]1(OC3(C)C)[C@H](C)C[C@H](O)[C@@H]2OC(C)=O", "inhibition": "inactive"}, {"smiles": "CC(=O)O[C@@H]1[C@@H]2[C@@H](OC(C)=O)[C@]3(OC2(C)C)[C@H](C)C[C@H](O)[C@H](OC(C)=O)[C@@]3(C)[C@@H]1OC(=O)c1ccccc1", "inhibition": "inactive"}, {"smiles": "CC(=O)OC[C@]12[C@H](OC(C)=O)[C@H](OC(C)=O)[C@@H]3[C@@H](OC(C)=O)[C@@]14O[C@@]3(C)COC(=O)c1cnccc1CCC(C)C(=O)O[C@@H]([C@H](OC(C)=O)[C@@H]2OC(C)=O)[C@]4(C)O", "note": "(stereo partly specified)", "inhibition": "inactive"}, {"smiles": "CC(=O)OC[C@]12[C@H](OC(C)=O)C(=O)[C@@H]3[C@@H](OC(C)=O)[C@@]14O[C@@]3(C)COC(=O)c1ncccc1C[C@H](C)[C@H](C)C(=O)O[C@H]([C@@H](OC(C)=O)[C@@H]2OC(C)=O)[C@H]4C", "inhibition": "inactive"}]}, {"system": "not listed separately", "test": "Cytotoxicity against human C8166 cells assessed as cell viability by MTT assay", "type": "cell-based", "conditions": "read-out: Activity", "units": {"viability": "%"}, "values": [{"smiles": "CC(=O)OC[C@]12[C@@H](OC(C)=O)[C@@H](OC(=O)c3ccccc3)[C@@H]3C[C@]1(OC3(C)C)[C@H](C)C[C@H](OC(C)=O)[C@@H]2OC(C)=O", "viability": 96}]}]}
